Experimental findings from article PMC8742467, “Therapeutical interference with the epigenetic landscape of germ cell tumors: a comparative drug study and new mechanistical insights” (Clinical Epigenetics, 2022) are described below.

One experiment concerns JAR (CC). The experiment can be described thus: XTT cell viability assay, JAR. It is filed as cell-based. The settings on record: Homo sapiens, after 48 h, n = 4, read-out: EC50 colour/symbol code, CC JAR. On the procedure: (§1) The […] (XTT) assays were performed as described previously. In summary, for GCT and fibroblast cell lines 5 × 10^3 cells (3 × 10^3 for UC, PCa and RCC cell lines) per 96-well were seeded and different drug concentrations (see Additional file 2: Fig. S2, Additional file 3: Fig. S3) or corresponding solvents were added to the cells the following day. For drug details see Additional file 12: Table S2 C. Each condition was analyzed in four technical replicates and EC50 values were calculated by GraphPad Prism v8.

The next experiment relates to GCT cell lines. The experiment can be described thus: XTT cell viability assay, GCT cell lines (pre-screen / summary). Conditions: first pre-screen, XTT; for EC50: read-out: EC50. It is filed as cell-based, Human. As to the method: as §1
A further experiment has as its system 2102EP (EC). The experiment can be described thus: XTT cell viability assay, 2102EP. It is filed as cell-based. Conditions: Homo sapiens, read-out: EC50 colour/symbol code, EC 2102EP. On the procedure: as §1
In the next experiment the test system is TCam-2 (SE). Briefly: XTT cell viability assay, TCam-2. The settings on record: Homo sapiens, read-out: EC50 colour/symbol code, SE TCam-2. It is filed as cell-based. On the procedure: as §1

Structures are written as SMILES. Where two headings read alike, the source gives them in different places. A value given as a limit tells only on which side of the number the result lay.

As for `O=C(O)c1ccc(CN2CCC(CN[C@@H]3C[C@H]3c3ccccc3)CC2)cc1` [GSK2879552], the EC50 in the experiment with JAR (CC) is above 50 µM; in the experiment on GCT cell lines (Homo sapiens, GCT) it was above 50 µM; in the experiment on 2102EP (EC) (after 48 h, XTT, n = 4), above 50 µM; with TCam-2 (SE) (after 48 h, XTT, n = 4) it was above 50 µM.

Consider `CN(C)NC(=O)CCC(=O)O` [Daminozide], for which the EC50 with JAR (CC), with 2102EP (EC) (48 h) and in the experiment on TCam-2 (SE) (48 h) was above 50 µM each time.

With `COc1cc(-c2cn(C)c(=O)c3cnccc23)c(OC)cc1CN(C)C` [BI-9564], the EC50 is above 50 µM in the experiment on JAR (CC); above 50 µM in the experiment with GCT cell lines (Homo sapiens, GCT); above 50 µM with 2102EP (EC) (after 48 h, XTT, n = 4); above 50 µM in the experiment with TCam-2 (SE) (after 48 h, XTT, n = 4).

In the case of `O=C(O)C1=CC(=C(c2ccc(O)c(C(=O)O)c2)c2ccc(O)c(C(=O)O)c2)C=CC1=O` [Aurintricarboxylic Acid], the EC50 in the experiment on JAR (CC) is above 50 µM; in the experiment on GCT cell lines (Homo sapiens, GCT), above 50 µM; in the experiment with 2102EP (EC) (after 48 h, XTT, n = 4) it was above 50 µM; in the experiment on TCam-2 (SE) (after 48 h, XTT, n = 4) it was above 50 µM.

In the case of `NC(=O)C1CCCc2c1[nH]c1ccc(Cl)cc21` (stereo not shown) [Selisistat], in the experiment with GCT cell lines, the EC50 is above 50 µM.

As for `NNCCc1ccc(NC(=O)CCCc2ccccc2)cc1` [Bizine], the EC50 in the experiment on GCT cell lines was above 50 µM.

Regarding `NC(=O)c1cccnc1` [Nicotinamide], the EC50 with JAR (CC) was above 50 µM; in the experiment with GCT cell lines (Homo sapiens, GCT), above 50 µM; with 2102EP (EC) (after 48 h, XTT, n = 4) it was above 50 µM; in the experiment with TCam-2 (SE) (after 48 h, XTT, n = 4), above 50 µM.

In the case of `COc1cc(-c2cn(C)c(=O)c3cnccc23)cc(OC)c1CN1CCN(CCCCCOc2cc(-c3scnc3C)ccc2CNC(=O)[C@@H]2C[C@@H](O)CN2C(=O)[C@@H](NC(=O)C2(F)CC2)C(C)(C)C)CC1` [VZ185], the EC50 lay within 1 to 50 µM in the experiment with JAR (CC); 1 to 50 µM with 2102EP (EC) (after 48 h, XTT, n = 4); 1 to 50 µM with TCam-2 (SE) (after 48 h, XTT, n = 4). In addition, the “EC50 / effective concentration in words” value in the experiment on GCT cell lines (SE and EC proxies TCam-2 and 2102EP) is reported as “low micromolar concentrations”.
